According to patent US9128087B2, “Nuclear receptor assay” (PamGene B.V., priority 2006, dated 2015):

Target: T1, PPAR gamma (Homo sapiens, UniProt P37231)
T1 construct: were incubated with GST-tagged PPAR gamma LBD domain (Invitrogen); purchased Invitrogen
T1 sequence (P37231 238-503 limits assumed): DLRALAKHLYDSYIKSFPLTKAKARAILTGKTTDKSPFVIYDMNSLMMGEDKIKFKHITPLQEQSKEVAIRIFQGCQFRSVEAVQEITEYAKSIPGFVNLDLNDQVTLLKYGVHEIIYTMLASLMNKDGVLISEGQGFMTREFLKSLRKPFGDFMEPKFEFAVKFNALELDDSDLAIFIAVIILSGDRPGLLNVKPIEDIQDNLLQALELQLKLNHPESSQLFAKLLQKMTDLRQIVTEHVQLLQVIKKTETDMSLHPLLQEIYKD
Assay: PamChip microarray binding of PPAR gamma LBD to 48 co-regulator derived peptides
Format: biochemical
Conditions: 1E-3.7 M ligand compared to array without ligand
Method: A microarray set-up was prepared comprising 48 peptides immobilized, i.e., a set of 48 co-regulator-derived motifs corresponding to SEQ ID NOs 1, 3-13, 15-46, and 50-53. In this experiment each peptide was present once on the array and at a single peptide concentration (1E-1 M spotting concentration). Preparation of these chips was as described in Example 1. Twelve wells of a 96 well plate (FIG. 2A(a)), each well comprising the same peptide microarray, were incubated with GST-tagged PPAR gamma LBD domain (Invitrogen), and 11 different concentrations of ligand and 1 control (absence of ligand). […]
FIG. 2A(b) represents the top view of a row of wells in a 96-well plate (FIG. 2A(a)), showing the fluorescence results obtained for the PAR gamma interaction, induced by GW1929, with a the 48 peptide motives. A magnification is shown of the fluorescence image of the microarray incubated with the highest concentration (1E-3.7 M) of GW1929. […] However, when the effect of GW1929 is read out on peptide 45 (SEQ ID NO. 45), derived from PPRB (PPAR binding protein), this ligand is characterized as a binding agonist. […] As said, for all peptides an EC50 value could be determined, but in FIG. 3 only the values that could be determined accurately (regression coefficient of the fit better than 0.7) are represented.

binding of PPAR gamma to peptide 31 (SEQ ID NO. 31, NCOR1): decreased binding
binding of PPAR gamma to peptide 45 (SEQ ID NO. 45, PPRB): increase binding
Substance: GW1929
